# Assay results taken from US20180291335A1, “MODIFIED POLYNUCLEOTIDES FOR ALTERING CELL PHENOTYPE” (ModernaTX, Inc., priority 2012, published 2018).
# Key:
# HeLa cells [1] = experiment: G-CSF modified mRNA transfected in HeLa cells, G-CSF ELISA; assay type: cell-based, human; details: HeLa cells, ELISA
# Method in brief: (§1)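 Human G-CSF mRNAs bearing various chemical modifications, made with a mutant T7 polymerase, were either transfected into HeLa cells or added to rabbit reticulocyte lysate at 250 ng mRNA. G-CSF protein was quantified by ELISA.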
# HeLa cells [2] = experiment: 2′Fluoro luciferase mRNA transfection in HeLa cells; assay type: cell-based, human; details: 83 ng 2′fluoro-containing luciferase RNA, 18 to 22 hours
# Procedure: The 2′Fluoro-modified mRNA were then transfected into HeLa cells to assess protein production in a cell context and the same mRNA were also assessed in a cell-free rabbit reticulocyte system. A control of unmodified luciferase (natural luciferase) was used for both transcription experiments, a control of untreated and mock transfected (Lipofectamine 2000 alone) were also analyzed for the HeLa transfection and a control of no RNA was analyzed for the rabbit reticulysates.
# For the HeLa transfection experiments, the day before transfection, 20,000 HeLa cells (ATCC no. CCL-2; Manassas, Va.) were harvested by treatment with Trypsin-EDTA solution (LifeTechnologies, Grand Island, N.Y.) and seeded in a total volume of 100 ul EMEM medium (supplemented with 10% FCS and 1× Glutamax) per well in a 96-well cell culture plate (Corning, Manassas, Va.). The cells were grown at […] in 5% CO2 atmosphere overnight. […] Lipofectamine 2000 (LifeTechnologies, Grand Island, N.Y.) was used as transfection reagent and 0.2 ul were diluted in 10 ul final volume of OPTI-MEM. […] The lysate volumes were adjusted or diluted until no more than 2 mio relative light units (RLU) per well were detected for the strongest signal producing samples and the RLUs for each chemistry tested are shown in Table 24. The plate reader was a BioTek Synergy H1 (BioTek, Winooski, Vt.). […]
# HeLa cells [3] = experiment: Luciferase in HeLa cells using a combination of modifications; assay type: cell-based, human; details: 83 ng luciferase modified RNA, 18 to 22 hours
# Procedure: To evaluate using of 2′fluoro-modified mRNA in combination with other modification a series of mRNA were transcribed using either wild-type T7 polymerase (non-fluoro-containing compounds) or using mutant T7 polymerases (fluyoro-containing compounds) as described in Example 86. All modified mRNA were tested by in vitro transfection in HeLa cells.
# (§2) The day before transfection, 20,000 HeLa cells (ATCC no. CCL-2; Manassas, Va.) were harvested by treatment with Trypsin-EDTA solution (LifeTechnologies, Grand Island, N.Y.) and seeded in a total volume of 100 ul EMEM medium (supplemented with 10% FCS and 1× Glutamax) per well in a 96-well cell culture plate (Corning, Manassas, Va.). The cells were grown at […] in 5% CO2 atmosphere overnight. […] Lipofectamine 2000 (LifeTechnologies, Grand Island, N.Y.) was used as transfection reagent and 0.2 ul were diluted in 10 ul final volume of OPTI-MEM. After 5 minutes of incubation at room temperature, both solutions were combined and incubated an additional 15 minute at room temperature. Then the 20 ul combined solution was added to the 100 ul cell culture medium containing the HeLa cells and incubated at room temperature.
# (§3) After 18 to 22 hours of incubation cells expressing luciferase were lysed with 100 ul of Passive Lysis Buffer (Promega, Madison, Wis.) according to manufacturer instructions. Aliquots of the lysates were transferred to white opaque polystyrene 96-well plates (Corning, Manassas, Va.) and combined with 100 ul complete luciferase assay solution (Promega, Madison, Wis.). The lysate volumes were adjusted or diluted until no more than 2 mio relative light units (RLU) per well were detected for the strongest signal producing samples and the RLUs for each chemistry tested are shown in Table 26. The plate reader was a BioTek Synergy H1 (BioTek, Winooski, Vt.). The background signal of the plates without reagent was about 200 relative light units per well.
# [4] = system: Rabbit Reticulocyte Lysate; experiment: 2′Fluoro luciferase mRNA in rabbit reticulocyte lysate assay; assay type: biochemical; details: Rabbit reticulysates, 250 ng luciferase mRNA, 60 minutes
# Procedure: For the rabbit reticulocyte lysate assay, 2′-fluoro-containing luciferase mRNA were diluted in sterile nuclease-free water to a final amount of 250 ng in 10 ul and added to 40 ul of freshly prepared Rabbit Reticulocyte Lysate and the in vitro translation reaction was done in a standard 1.5 mL polypropylene reaction tube (Thermo Fisher Scientific, Waltham, Mass.) at 30° C. in a dry heating block. The translation assay was done with the Rabbit Reticulocyte Lysate (nuclease-treated) kit (Promega, Madison, Wis.) according to the manufacturer's instructions. The reaction buffer was supplemented with a one-to-one blend of provided amino acid stock solutions devoid of either Leucine or Methionine resulting in a reaction mix containing sufficient amounts of both amino acids to allow effective in vitro translation. […]
# Aliquots of the in vitro translation reaction containing luciferase modified RNA were transferred to white opaque polystyrene 96-well plates (Corning, Manassas, Va.) and combined with 100 ul complete luciferase assay solution (Promega, Madison, Wis.). The volumes of the in vitro translation reactions were adjusted or diluted until no more than 2 mio relative light units (RLUs) per well were detected for the strongest signal producing samples and the RLUs for each chemistry tested are shown in Tables 24 and 25. The plate reader was a BioTek Synergy H1 (BioTek, Winooski, Vt.). […]
# Balb-C mice [5] = experiment: In vivo screening of luciferase modified mRNA, whole-body bioluminescence; details: subcutaneous; for Luciferase expression (photon/second): 42 to 103 ug mRNA in 1×PBS, imaged 8 hours after dosing, total flux of entire mouse
# Procedure: (§4) A control of PBS was also tested. The dosages of the modified luciferase mRNA is also outlined in Table 22. 8 hours after dosing the mice were imaged to determine luciferase expression. Twenty minutes prior to imaging, mice were injected intraperitoneally with a D-luciferin solution at 150 mg/kg. Animals were then anesthetized and images were acquired with an IVIS Lumina II imaging system (Perkin Elmer). Bioluminescence was measured as total flux (photons/second) of the entire mouse.
# Balb-C mice [6] = experiment: In vivo screening of combination luciferase modified mRNA, whole-body bioluminescence; details: subcutaneous, 100 ug mRNA in 1×PBS, imaged 8 hours after dosing
# Procedure: as §4
# [7] = system: peripheral blood mononuclear cells (PBMC); experiment: In vitro screening in PBMC: G-CSF protein expression by ELISA; assay type: cell-based, human
# Method in brief: (§5)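 ELISA was the detection method, applied to harvested supernatant that had been held frozen beforehand.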
# [8] = system: tumor necrosis factor alpha (TNF-α); experiment: In vitro screening in PBMC: tumor necrosis factor alpha induction by ELISA; assay type: cell-based, human
# Method in brief: as §5
# rabbit reticulysates = experiment: G-CSF modified mRNA in rabbit reticulysates, G-CSF ELISA; assay type: biochemical; details: 250 ng of modified mRNA
# Method in brief: as §1
# [9] = system: Rabbit Reticulocyte Lysate; experiment: In vitro screening in rabbit reticulocyte lysates, luciferase mRNA translation; assay type: biochemical; details: 250 ng luciferase mRNA, 60 minutes, 30° C.
# Procedure: The diluted luciferase was added to 40 ul of freshly prepared Rabbit Reticulocyte Lysate and the in vitro translation reaction was done in a standard 1.5 mL polypropylene reaction tube (Thermo Fisher Scientific, Waltham, Mass.) at 30° C. in a dry heating block. The translation assay was done with the Rabbit Reticulocyte Lysate (nuclease-treated) kit (Promega, Madison, Wis.) according to the manufacturer's instructions. The reaction buffer was supplemented with a one-to-one blend of provided amino acid stock solutions devoid of either Leucine or Methionine resulting in a reaction mix containing sufficient amounts of both amino acids to allow effective in vitro translation.
# After 60 minutes of incubation, the reaction was stopped by placing the reaction tubes on ice. Aliquots of the in vitro translation reaction containing luciferase modified RNA were transferred to white opaque polystyrene 96-well plates (Corning, Manassas, Va.) and combined with 100 ul complete luciferase assay solution (Promega, Madison, Wis.). The volumes of the in vitro translation reactions were adjusted or diluted until no more than 2 mio relative light units (RLUs) per well were detected for the strongest signal producing samples and the RLUs for each chemistry tested are shown in Table 20. The plate reader was a BioTek Synergy H1 (BioTek, Winooski, Vt.). The background signal of the plates without reagent was about 200 relative light units per well.
# [10] = system: human embryonic kidney 293 (HEK293) cells; experiment: Cytotoxicity of NTPs, CYTO TOX-GLO assay; assay type: cell-based
# Procedure: The cytotoxicity of natural and modified nucleoside triphosphates (NTPs) alone or in combination with other bases, was analyzed in human embryonic kidney 293 (HEK293) cells in the absence of transfection reagent. […] 10 ul of the NTPs outlined in Table 12 were combined with 10 ul of lipid dilution and incubated for 30 minutes to form a complex before 80 ul of the HEK293 cell suspension was added to the NTP complex.
# Natural and modified NTPs were transfected at a concentration of 2.1 nM, 21 nM, 210 nM, 2.1 um, 21 uM, 210 um or 2.1 mM. NTPs in combination were transfected at a total concentration of NTPs of 8.4 nM, 84 nM, 840 nM, 8.4 uM, 84 uM, 840 uM and 8.4 mM. […] The cytotoxicity of the NTPs and the modified G-CSF mRNA was assayed at 4, 24, 48 and 72 hours post addition to the HEK293 cells using a CYTO TOX-GLO™ assay from Promega (Madison, Wis.) following the manufacturer protocol except pippeting was used for lysing the cells instead of shaking the plates.
# HeLa cells [11] = experiment: In vitro screening in HeLa cells, luciferase modified RNA; assay type: cell-based, human; details: HeLa cells, 83 ng luciferase modified RNA, 18 to 22 hours
# Procedure: as §2
# as §3, with “19.” for “26.”
# interferon-alpha (IFN-α) = experiment: In vitro screening in PBMC: interferon-alpha induction by ELISA; assay type: cell-based, human
# Method in brief: as §5
# [12] = PBMC Donor 1, 500 ng G-CSF mRNA
# [13] = PBMC Donor 2, 500 ng G-CSF mRNA
# [14] = PBMC Donor 3, 500 ng G-CSF mRNA
compound,measurement,setting,value
2′-flurorouridine: Luciferase mRNA (SEQ ID NO: 409) fully modified with 2′-fluorouridine,G-CSF protein (pg/ml) HeLa cells,HeLa cells [1]; combination chemistries,0 pg/mL
same,RLU,HeLa cells [2],6767.5 RLU
same,RLU,HeLa cells [3],305 RLU
same,RLU,[4],258 RLU
same,Luciferase expression (photon/second),Balb-C mice [5],3.47E+05 photon/second
same,in vivo activity,"Balb-C mice [5]; luciferase mRNA, result in words",exception
5-methylcytidine/where 50% of the uridine is replaced with 2-thiouridine: Luciferase mRNA (SEQ ID NO: 409) with 5-methylcytidine and 50% of the uridine replaced with 2-thiouridine,Luciferase expression (photon/second),Balb-C mice [6],2.39E+06 photon/second
same,RLU,HeLa cells [3],"41,601 RLU"
O=c1[nH]cc([C@@H]2O[C@H](CO)[C@@H](O)[C@H]2O)c(=O)[nH]1 [Pseudouridine],G-CSF Protein Expression,[7]; [12],2477 pg/mL
same,G-CSF Protein Expression,[7]; [13],"1,909 pg/ml"
same,G-CSF Protein Expression,[7]; [14],"1,498 pg/ml"
same,TNF-α Expression,[8]; [12],36 pg/mL
same,TNF-α Expression,[8]; [13],81 pg/mL
same,TNF-α Expression,[8]; [14],126 pg/mL
same,G-CSF protein (pg/ml) Rabbit reticulysates cells,rabbit reticulysates,"147,875 pg/ml"
same,G-CSF protein (pg/ml) HeLa cells,HeLa cells [1]; G-CSF mRNA,"1,150,909 pg/ml"
same,RLU,[9],"587,795 RLU"
same,toxicity as compared to the untreated cells,[10],not toxic
same,RLU,HeLa cells [11],"655,632 RLU"
same,Luciferase expression (photon/second),Balb-C mice [5],1.36E+07 photon/second
same,IFN-α Expression,interferon-alpha (IFN-α); [12],120 pg/mL
same,IFN-α Expression,interferon-alpha (IFN-α); [13],77 pg/mL
same,IFN-α Expression,interferon-alpha (IFN-α); [14],171 pg/mL
same,cytokine induction,"interferon-alpha (IFN-α); PBMC, G-CSF mRNA, result in words",detectable cytokine induction which is above background
